{"source": "patent US11117900B2", "about": "(Vertex Pharmaceuticals Incorporated, priority 2012, dated 2021)", "data": [{"system": "HCT116 colorectal cancer cells", "test": "Cisplatin sensitization assay (96 h MTS cell viability);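 note: compound concentration needed to lower the IC50 of Cisplatin alone by a set fold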", "format": "cell-based", "conditions": "Cisplatin sensitization value", "summary_of_the_method": "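HCT116 cells were dosed simultaneously with compound and cisplatin as a full matrix of 2-fold serial dilutions from 10 μM top final concentration. Incubation was 96 h at 37° C., 5% CO2, followed by 1 h with MTS reagent for the viability read-out. Sensitization values were binned into +++, ++ and + categories.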", "values": [{"molecule": "CC1(S(C)(=O)=O)CCN(c2ccncc2NC(=O)c2c(N)nn3cc(F)cnc23)CC1", "note": "[I-N-243, 2-amino-6-fluoro-N-(4-(4-methyl-4-(methylsulfonyl)piperidin-1-yl)pyridin-3-yl)pyrazolo[1,5-a]pyrimidine-3-carboxamide]", "Cisplatin Sensitization Assay": "+++ (Compounds with a Cisplatin sensitization value of <0.02 μM are marked with “+++.”)"}, {"molecule": "Nc1nn2cc(F)cnc2c1C(=O)Nc1cnccc1N1CCN2C(=O)CCCC2C1", "note": "(stereo not drawn) [I-N-244, 2-amino-6-fluoro-N-(4-(6-oxohexahydro-1H-pyrido[1,2-a]pyrazin-2(6H)-yl)pyridin-3-yl)pyrazolo[1,5-a]pyrimidine-3-carboxamide]", "Cisplatin Sensitization Assay": "+++ (Compounds with a Cisplatin sensitization value of <0.02 μM are marked with “+++.”)"}, {"molecule": "CC(C)N1CCN2CCN(c3ccncc3NC(=O)c3c(N)nn4cc(F)cnc34)CC2C1=O", "note": "(stereo not drawn) [I-N-245, 2-amino-6-fluoro-N-(4-(8-isopropyl-9-oxohexahydro-1H-pyrazino[1,2-a]pyrazin-2(6H)-yl)pyridin-3-yl)pyrazolo[1,5-a]pyrimidine-3-carboxamide]", "Cisplatin Sensitization Assay": "++ (Compounds with a Cisplatin sensitization value >0.02 μM but <0.2 μM are marked with “++.”)"}, {"molecule": "Nc1nn2cc(F)cnc2c1C(=O)Nc1cncc(F)c1N1CCCC1", "note": "[I-N-246, 2-amino-6-fluoro-N-(5-fluoro-4-(pyrrolidin-1-yl)pyridin-3-yl)pyrazolo[1,5-a]pyrimidine-3-carboxamide]", "Cisplatin Sensitization Assay": "++ (Compounds with a Cisplatin sensitization value >0.02 μM but <0.2 μM are marked with “++.”)"}, {"molecule": "Nc1nn2cc(F)cnc2c1C(=O)Nc1cnccc1N1CCN2[C@@H](CCS2(=O)=O)C1", "note": "[I-N-247, (S)-2-amino-N-(4-(1,1-dioxidotetrahydro-2H-isothiazolo[2,3-a]pyrazin-5(3H)-yl)pyridin-3-yl)-6-fluoropyrazolo[1,5-a]pyrimidine-3-carboxamide]", "Cisplatin Sensitization Assay": "+++ (Compounds with a Cisplatin sensitization value of <0.02 μM are marked with “+++.”)"}, {"molecule": "Nc1nn2cc(F)cnc2c1C(=O)Nc1cncc(F)c1N1CCN2C(=O)OC[C@@H]2C1", "note": "[I-N-248, (S)-2-amino-6-fluoro-N-(5-fluoro-4-(3-oxotetrahydro-1H-oxazolo[3,4-a]pyrazin-7(3H)-yl)pyridin-3-yl)pyrazolo[1,5-a]pyrimidine-3-carboxamide]", "Cisplatin Sensitization Assay": "++ (Compounds with a Cisplatin sensitization value >0.02 μM but <0.2 μM are marked with “++.”)"}, {"molecule": "Nc1nn2cc(F)cnc2c1C(=O)Nc1cnccc1N1CCN(C(=O)C2COC2)CC1", "note": "[I-N-249]", "Cisplatin Sensitization Assay": "+++ (Compounds with a Cisplatin sensitization value of <0.02 μM are marked with “+++.”)"}, {"molecule": "Nc1nn2cc(F)cnc2c1C(=O)Nc1cncc(F)c1N1CCS(=O)(=O)CC1", "note": "[I-N-250, 2-amino-N-(4-(1,1-dioxidothiomorpholino)-5-fluoropyridin-3-yl)-6-fluoropyrazolo[1,5-a]pyrimidine-3-carboxamide]", "Cisplatin Sensitization Assay": "++ (Compounds with a Cisplatin sensitization value >0.02 μM but <0.2 μM are marked with “++.”)"}, {"molecule": "CC(=O)N1CC2(CCN(c3ccncc3NC(=O)c3c(N)nn4cc(F)cnc34)CC2)C1", "note": "[I-N-251, N-(4-(2-acetyl-2,7-diazaspiro[3.5]nonan-7-yl)pyridin-3-yl)-2-amino-6-fluoropyrazolo[1,5-a]pyrimidine-3-carboxamide]", "Cisplatin Sensitization Assay": "+++ (Compounds with a Cisplatin sensitization value of <0.02 μM are marked with “+++.”)"}, {"molecule": "CC1(C)CN(c2ccncc2NC(=O)c2c(N)nn3cc(F)cnc23)CCS1(=O)=O", "note": "[I-N-252, 2-amino-N-(4-(2,2-dimethyl-1,1-dioxidothiomorpholino)pyridin-3-yl)-6-fluoropyrazolo[1,5-a]pyrimidine-3-carboxamide]", "Cisplatin Sensitization Assay": "+++ (Compounds with a Cisplatin sensitization value of <0.02 μM are marked with “+++.”)"}, {"molecule": "Nc1nn2cc(F)cnc2c1C(=O)Nc1cnccc1N1CCCC2(COC2)C1", "note": "[I-N-253, N-(4-(2-oxa-6-azaspiro[3.5]nonan-6-yl)pyridin-3-yl)-2-amino-6-fluoropyrazolo[1,5-a]pyrimidine-3-carboxamide]", "Cisplatin Sensitization Assay": "+++ (Compounds with a Cisplatin sensitization value of <0.02 μM are marked with “+++.”)"}, {"molecule": "Nc1nn2cc(F)cnc2c1C(=O)Nc1cnccc1N1CCC2(CCNC2)CC1", "note": "[I-N-255, N-(4-(2,8-diazaspiro[4.5]decan-8-yl)pyridin-3-yl)-2-amino-6-fluoropyrazolo[1,5-a]pyrimidine-3-carboxamide]", "Cisplatin Sensitization Assay": "++ (Compounds with a Cisplatin sensitization value >0.02 μM but <0.2 μM are marked with “++.”)"}, {"molecule": "Cc1nnc(N2CCN(c3ccncc3NC(=O)c3c(N)nn4cc(F)cnc34)CC2)o1", "note": "[I-N-256, 2-amino-6-fluoro-N-(4-(4-(5-methyl-1,3,4-oxadiazol-2-yl)piperazin-1-yl)pyridin-3-yl)pyrazolo[1,5-a]pyrimidine-3-carboxamide]", "Cisplatin Sensitization Assay": "++ (Compounds with a Cisplatin sensitization value >0.02 μM but <0.2 μM are marked with “++.”)"}, {"molecule": "CC(=O)N1CCC2(CCN(c3ccncc3NC(=O)c3c(N)nn4cc(F)cnc34)CC2)C1", "note": "[I-N-257, N-(4-(2-acetyl-2,8-diazaspiro[4.5]decan-8-yl)pyridin-3-yl)-2-amino-6-fluoropyrazolo[1,5-a]pyrimidine-3-carboxamide]", "Cisplatin Sensitization Assay": "+++ (Compounds with a Cisplatin sensitization value of <0.02 μM are marked with “+++.”)"}, {"molecule": "Cn1ccc2cncc(NC(=O)c3c(N)nn4cc(F)cnc34)c21", "note": "[I-N-259, 2-amino-6-fluoro-N-(1-methyl-1H-pyrrolo[3,2-c]pyridin-7-yl)pyrazolo[1,5-a]pyrimidine-3-carboxamide]", "Cisplatin Sensitization Assay": "+ (Compounds with a Cisplatin sensitization value >0.2 μM but <5 μM are marked with “+.”)"}, {"molecule": "Cc1nonc1N1CCN(c2ccncc2NC(=O)c2c(N)nn3cc(F)cnc23)CC1", "note": "[I-N-260, 2-amino-6-fluoro-N-(4-(4-(4-methyl-1,2,5-oxadiazol-3-yl)piperazin-1-yl)pyridin-3-yl)pyrazolo[1,5-a]pyrimidine-3-carboxamide]", "Cisplatin Sensitization Assay": "+++ (Compounds with a Cisplatin sensitization value of <0.02 μM are marked with “+++.”)"}, {"molecule": "COC(=O)N1CCN(c2c(F)cncc2NC(=O)c2c(N)nn3cc(F)cnc23)CC1", "note": "[I-N-261, methyl-4-(3-(2-amino-6-fluoropyrazolo[1,5-a]pyrimidine-3-carboxamido)-5-fluoropyridin-4-yl)piperazine-1-carboxylate]", "Cisplatin Sensitization Assay": "+++ (Compounds with a Cisplatin sensitization value of <0.02 μM are marked with “+++.”)"}, {"molecule": "CC(=O)N1CCCC12CCN(c1ccncc1NC(=O)c1c(N)nn3cc(F)cnc13)CC2", "note": "[I-N-262, N-(4-(1-acetyl-1,8-diazaspiro[4.5]decan-8-yl)pyridin-3-yl)-2-amino-6-fluoropyrazolo[1,5-a]pyrimidine-3-carboxamide]", "Cisplatin Sensitization Assay": "+++ (Compounds with a Cisplatin sensitization value of <0.02 μM are marked with “+++.”)"}, {"molecule": "Cc1nncn1-c1ccncc1NC(=O)c1c(N)nn2cc(F)cnc12", "note": "[I-N-263, 2-amino-6-fluoro-N-(4-(3-methyl-4H-1,2,4-triazol-4-yl)pyridin-3-yl)pyrazolo[1,5-a]pyrimidine-3-carboxamide]", "Cisplatin Sensitization Assay": "+ (Compounds with a Cisplatin sensitization value >0.2 μM but <5 μM are marked with “+.”)"}, {"molecule": "Nc1nn2cc(F)cnc2c1C(=O)Nc1cnccc1N1CCCCCC1", "note": "[I-N-264, 2-amino-N-(4-(azepan-1-yl)pyridin-3-yl)-6-fluoropyrazolo[1,5-a]pyrimidine-3-carboxamide]", "Cisplatin Sensitization Assay": "+ (Compounds with a Cisplatin sensitization value >0.2 μM but <5 μM are marked with “+.”)"}, {"molecule": "Cc1nnc(C2CCN(c3ccncc3NC(=O)c3c(N)nn4cc(F)cnc34)CC2)o1", "note": "[I-N-265, 2-amino-6-fluoro-N-(4-(4-(5-methyl-1,3,4-oxadiazol-2-yl)piperidin-1-yl)pyridin-3-yl)pyrazolo[1,5-a]pyrimidine-3-carboxamide]", "Cisplatin Sensitization Assay": "++ (Compounds with a Cisplatin sensitization value >0.02 μM but <0.2 μM are marked with “++.”)"}, {"molecule": "COC1CCN(c2ccncc2NC(=O)c2c(N)nn3cc(F)cnc23)CC1", "note": "[I-N-266, 2-amino-6-fluoro-N-(4-(4-methoxypiperidin-1-yl)pyridin-3-yl)pyrazolo[1,5-a]pyrimidine-3-carboxamide]", "Cisplatin Sensitization Assay": "+++ (Compounds with a Cisplatin sensitization value of <0.02 μM are marked with “+++.”)"}, {"molecule": "CN(C)CC1CCN(c2ccncc2NC(=O)c2c(N)nn3cc(F)cnc23)CC1", "note": "[I-N-267, 2-amino-N-(4-(4-((dimethylamino)methyl)piperidin-1-yl)pyridin-3-yl)-6-fluoropyrazolo[1,5-a]pyrimidine-3-carboxamide]", "Cisplatin Sensitization Assay": "+++ (Compounds with a Cisplatin sensitization value of <0.02 μM are marked with “+++.”)"}, {"molecule": "Nc1nn2cc(F)cnc2c1C(=O)Nc1cnccc1N1CCC(c2nnco2)CC1", "note": "[I-N-268, N-(4-(4-(1,3,4-oxadiazol-2-yl)piperidin-1-yl)pyridin-3-yl)-2-amino-6-fluoropyrazolo[1,5-a]pyrimidine-3-carboxamide]", "Cisplatin Sensitization Assay": "+++ (Compounds with a Cisplatin sensitization value of <0.02 μM are marked with “+++.”)"}, {"molecule": "Cc1ncn(-c2ccncc2NC(=O)c2c(N)nn3cc(F)cnc23)c1C", "note": "[I-N-269, 2-amino-N-(4-(4,5-dimethyl-1H-imidazol-1-yl)pyridin-3-yl)-6-fluoropyrazolo[1,5-a]pyrimidine-3-carboxamide]", "Cisplatin Sensitization Assay": "++ (Compounds with a Cisplatin sensitization value >0.02 μM but <0.2 μM are marked with “++.”)"}, {"molecule": "Nc1nn2cc(F)cnc2c1C(=O)Nc1cncc(F)c1N1CCCCC1", "note": "[I-N-270, 2-amino-6-fluoro-N-(5-fluoro-4-(piperidin-1-yl)pyridin-3-yl)pyrazolo[1,5-a]pyrimidine-3-carboxamide]", "Cisplatin Sensitization Assay": "+++ (Compounds with a Cisplatin sensitization value of <0.02 μM are marked with “+++.”)"}, {"molecule": "Nc1nn2cc(F)cnc2c1C(=O)Nc1cnccc1N1CCC(S(=O)(=O)N2CCC2)CC1", "note": "[I-N-271, 2-amino-N-(4-(4-(azetidin-1-ylsulfonyl)piperidin-1-yl)pyridin-3-yl)-6-fluoropyrazolo[1,5-a]pyrimidine-3-carboxamide]", "Cisplatin Sensitization Assay": "+++ (Compounds with a Cisplatin sensitization value of <0.02 μM are marked with “+++.”)"}]}]}
